Test results reported in patent US20070009597A1, “Active substance combination comprising a compound with npy receptor affinity and a compound with 5-ht6 receptor affinity” (LABORATORIOS DEL DR. ESTEVE S.A., priority 2003, published 2007).

Row | Structure (SMILES) | melting point
1 | CN(C)CCn1ccc2cc(NS(=O)(=O)c3cccc4nsnc34)ccc21 [Example 10e, N-[1-(2-dimethylaminoethyl)-1H-indole-5-yl]-benzo[1,2,5]thiadiazole-4-sulfonamide] | 166 to 168 °C
2 | O=C(CN1CCC(Nc2ccccc2CO)CC1)Nc1ccc2c(c1)CCC2=O | 138 to 140 °C
